Reference: ChEMBL document CHEMBL3992552, “Mechanisms of action and structure-activity relationships of cytotoxic flavokawain derivatives” (Bioorg Med Chem, 2017)
Active and inactive are the calls of the source. The calls are words filed in the database; no cut-off is given here.

Assays:
HCT-116 [1] = test: Induction of apoptosis in human HCT116 cells harboring wild-type p53 assessed as increase in late apoptosis at 2 times IC50 after 48 hrs by YoPro/propidium iodide/Hoechst staining based assay; type: functional, cell-based
HaCaT [2] = test: Cell cycle arrest in human HaCaT cells harboring […] p53 assessed as accumulation at S phase at 10 uM measured after 48 hrs by Hoechst/BrdU staining based fluorescence assay (reference value: 52.3%); type: functional
HCT-116 [3] = test: Cell cycle arrest in human HCT116 cells harboring wild-type p53 assessed as mitotic index at 25 uM measured after 48 hrs by Hoechst staining based fluorescence assay (reference value: 2.3); type: functional
[4] = Selectivity index, ratio of IC50 for human fibroblasts to IC50 for human RL cells
NCI-H727 [5] = test: Cytotoxicity against human NCI-H727 cells assessed as cell viability after 48 hrs by Hoechst 33342 staining based assay; type: functional; details: NCI-H727, 48 h
[6] = Selectivity index, ratio of IC50 for human fibroblasts to IC50 for human HaCaT cells
PC-3 [7] = test: Induction of apoptosis in human PC3 cells harboring p53 mutant assessed as increase in cleaved caspase3 at 2 times IC50 after 48 hrs by Hoechst staining based assay; type: functional, cell-based
MCF7 [8] = test: Induction of apoptosis in human MCF7 cells harboring wild-type p53 assessed as upregulation of cyclinB1 measured after 18 hrs by Hoechst staining based assay; type: functional, cell-based
MDA-MB-231 [9] = test: Cell cycle arrest in human MDA-MB-231 cells harboring p53 mutant assessed as accumulation at S phase at 25 uM measured after 48 hrs by Hoechst/BrdU staining based fluorescence assay (reference value: 42.2%); type: functional
HCT-116 [10] = test: Induction of apoptosis in human HCT116 cells harboring wild-type p53 assessed as increase in cleaved caspase3 at 2 times IC50 after 48 hrs by Hoechst staining based assay; type: functional, cell-based
MDA-MB-231 [11] = test: Cell cycle arrest in human MDA-MB-231 cells harboring p53 mutant assessed as mitotic index at 10 uM measured after 48 hrs by Hoechst staining based fluorescence assay (reference value: 2.1); type: functional
MCF7 [12] = test: Induction of apoptosis in human MCF7 cells harboring wild-type p53 assessed as upregulation of p21 measured after 48 hrs by Hoechst staining based fluorescence assay; type: functional, cell-based
PC-3 [13] = test: Cell cycle arrest in human PC3 cells harboring p53 mutant assessed as accumulation at S phase at 25 uM measured after 48 hrs by Hoechst/BrdU staining based fluorescence assay (reference value: 40.8%); type: functional
HCT-116 [14] = test: Induction of apoptosis in human HCT116 cells harboring wild-type p53 assessed as upregulation of p21 measured after 48 hrs by Hoechst staining based fluorescence assay; type: functional, cell-based
HCT-116 [15] = test: Cytotoxicity against human HCT116 cells assessed as cell viability after 48 hrs by Hoechst 33342 staining based assay; type: functional; details: HCT-116, 48 h
HaCaT [16] = test: Cell cycle arrest in human HaCaT cells harboring […] p53 assessed as mitotic index at 25 uM measured after 48 hrs by Hoechst staining based fluorescence assay (reference value: 2.6); type: functional
HCT-116 [17] = test: Cytotoxicity against human HCT116 cells assessed as cell survival at 50 uM after 48 hrs by Hoechst 33342 staining based assay relative to control; type: functional; details: HCT-116, 48 h, read-out: Survival
HaCaT [18] = test: Cytotoxicity against human HaCaT cells assessed as cell survival at 50 uM after 48 hrs by Hoechst 33342 staining based assay relative to control; type: functional; details: read-out: Survival
MDA-MB-231 [19] = test: Induction of apoptosis in human MDA-MB-231 cells harboring p53 mutant assessed as increase in cleaved caspase3 at 2 times IC50 after 24 hrs by Hoechst staining based assay; type: functional, cell-based
[20] = Selectivity index, ratio of IC50 for human fibroblasts to IC50 for human HCT116 cells
PC-3 [21] = test: Cytotoxicity against human PC3 cells assessed as cell viability after 48 hrs by Hoechst 33342 staining based assay; type: functional; details: PC-3, 48 h
MCF7 [22] = test: Induction of apoptosis in human MCF7 cells harboring wild-type p53 assessed as increase in late apoptosis at 2 times IC50 after 24 hrs by YoPro/propidium iodide/Hoechst staining based assay; type: functional, cell-based
[23] = Selectivity index, ratio of IC50 for human fibroblasts to IC50 for human HuH7 cells
Huh-7 [24] = test: Cytotoxicity against human HuH7 cells assessed as cell survival at 50 uM after 48 hrs by Hoechst 33342 staining based assay relative to control; type: functional; details: Huh-7, 48 h, read-out: Survival
PC-3 [25] = test: Cell cycle arrest in human PC3 cells harboring p53 mutant assessed as mitotic index at 10 uM measured after 48 hrs by Hoechst staining based fluorescence assay (reference value: 2.5); type: functional
Caco-2 [26] = test: Cell cycle arrest in human Caco2 cells assessed as accumulation at S phase at 10 uM measured after 48 hrs by Hoechst/BrdU staining based fluorescence assay (reference value: […]); type: functional
[27] = Selectivity index, ratio of IC50 for human fibroblasts to IC50 for human MDA-MB-231 cells
HaCaT [28] = test: Cell cycle arrest in human HaCaT cells harboring […] p53 assessed as accumulation at S phase at 25 uM measured after 48 hrs by Hoechst/BrdU staining based fluorescence assay (reference value: 52.3%); type: functional
NCI-H727 [29] = test: Cell cycle arrest in human NCI-H727 cells assessed as accumulation at G1/S phase by Hoechst staining based fluorescence assay; type: functional
Huh-7 [30] = test: Cell cycle arrest in human HuH7 cells assessed as mitotic index at 10 uM measured after 48 hrs by Hoechst staining based fluorescence assay (reference value: 2.2); type: functional
Caco-2 [31] = test: Cell cycle arrest in human Caco2 cells assessed as mitotic index at 10 uM measured after 48 hrs by Hoechst staining based fluorescence assay (reference value: 3.6); type: functional
Huh-7 [32] = test: Cell cycle arrest in human HuH7 cells assessed as accumulation at S phase at 10 uM measured after 48 hrs by Hoechst/BrdU staining based fluorescence assay (reference value: 44%); type: functional
HaCaT [33] = test: Cell cycle arrest in human HaCaT cells harboring […] p53 assessed as mitotic index at 10 uM measured after 48 hrs by Hoechst staining based fluorescence assay (reference value: 2.6); type: functional
HCT-116 [34] = test: Cell cycle arrest in human HCT116 cells assessed as accumulation at G1/S phase by Hoechst staining based fluorescence assay; type: functional
[35] = Selectivity index, ratio of IC50 for human fibroblasts to IC50 for human NCI-H727 cells
Caco-2 [36] = test: Cell cycle arrest in human Caco2 cells assessed as accumulation at S phase at 25 uM measured after 48 hrs by Hoechst/BrdU staining based fluorescence assay (reference value: […]); type: functional
NCI-H727 [37] = test: Cytotoxicity against human NCI-H727 cells assessed as cell survival at 50 uM after 48 hrs by Hoechst 33342 staining based assay relative to control; type: functional; details: NCI-H727, 48 h, read-out: Survival
MDA-MB-231 [38] = test: Induction of apoptosis in human MDA-MB-231 cells harboring p53 mutant assessed as increase in early apoptosis at 2 times IC50 after 24 hrs by YoPro/propidium iodide/Hoechst staining based assay; type: functional, cell-based

Compound | Activity (HCT-116 [1]) | Activity (HaCaT [2]) [%] | Activity_index (HCT-116 [3]) | Ratio IC50 [4] | IC50 (NCI-H727 [5]) [µM] | Ratio IC50 [6] | Activity (PC-3 [7]) | Activity (MCF7 [8]) | Activity (MDA-MB-231 [9]) [%] | Activity (HCT-116 [10]) | Activity_index (MDA-MB-231 [11]) | Activity (MCF7 [12]) | Activity (PC-3 [13]) [%] | Activity (HCT-116 [14]) | IC50 (HCT-116 [15]) [µM] | Activity_index (HaCaT [16]) | viability at 50 µM (HCT-116 [17]) [%] | viability at 50 µM (HaCaT [18]) [%] | Activity (MDA-MB-231 [19]) | Ratio IC50 [20] | other results
COc1cc(OC)c(C(=O)/C=C/c2ccc(Br)cc2)c(OC)c1 | Active | 24 | 0.6 | >6 | 11.3 | >5.6 | Active | Active | 44 | Active | 15 | Active | 0.4 | Active | 6.2 | 0 | 0 | 6 | Active | >8.1 | IC50 (PC-3 [21]): 7.1 µM; Activity (MCF7 [22]): Active; Ratio IC50 [23]: >3.6; viability at 50 µM (Huh-7 [24]): 3%; Activity_index (PC-3 [25]): 2.5; Activity (Caco-2 [26]): 36%; Ratio IC50 [27]: >4.5; Activity (HaCaT [28]): 0.3%; Activity (NCI-H727 [29]): Active; Activity_index (Huh-7 [30]): 10.4; Activity_index (Caco-2 [31]): 30.7; Activity (Huh-7 [32]): 46%; Activity_index (HaCaT [33]): 19; Activity (HCT-116 [34]): Active; Ratio IC50 [35]: >4.4; Activity (Caco-2 [36]): 1.9%; viability at 50 µM (NCI-H727 [37]): 2%; Activity (MDA-MB-231 [38]): Active
COc1cccc(/C=C/C(=O)c2c(OC)cc(OC)cc2OC)c1 | Active | 19 | 1.2 | >8.5 | 8.2 | >9.4 | Active | Active | 12 | Active | 25 | Active | 0.9 | Active | 4.3 | 0.1 | 0 | 18 | Active | >11.6 | IC50 (PC-3 [21]): 3.1 µM; Activity (MCF7 [22]): Active; Ratio IC50 [23]: >5.6; viability at 50 µM (Huh-7 [24]): 3%; Activity_index (PC-3 [25]): 27.6; Activity (Caco-2 [26]): 31%; Ratio IC50 [27]: >5.7; Activity (HaCaT [28]): 0%; Activity (NCI-H727 [29]): Active; Activity_index (Huh-7 [30]): 12.3; Activity_index (Caco-2 [31]): 36.8; Activity (Huh-7 [32]): 40%; Activity_index (HaCaT [33]): 17.5; Activity (HCT-116 [34]): Active; Ratio IC50 [35]: >6.1; Activity (Caco-2 [36]): 6%; viability at 50 µM (NCI-H727 [37]): 1%; Activity (MDA-MB-231 [38]): Active
COc1cc(O)c(C(=O)/C=C/c2ccccc2)c(OC)c1 [FLAVOKAWAIN B] | Active | 50 | 0.6 | 3.2 | 11.3 | 1.9 | Active | Active | 40 | Active | 5.2 | Active | 20 | Active | 7.5 | 0.9 | 0 | 7 | Active | 3.5 | IC50 (PC-3 [21]): 9.1 µM; Activity (MCF7 [22]): Active; Ratio IC50 [23]: 1.7; viability at 50 µM (Huh-7 [24]): 10%; Activity_index (PC-3 [25]): 4.2; Activity (Caco-2 [26]): 42%; Ratio IC50 [27]: 1.6; Activity (HaCaT [28]): 21%; Activity (NCI-H727 [29]): Active; Activity_index (Huh-7 [30]): 2.2; Activity_index (Caco-2 [31]): 9.7; Activity (Huh-7 [32]): 55%; Activity_index (HaCaT [33]): 3.4; Activity (HCT-116 [34]): Active; Ratio IC50 [35]: 2.3; Activity (Caco-2 [36]): 40%; viability at 50 µM (NCI-H727 [37]): 2%; Activity (MDA-MB-231 [38]): Active
COc1cc(OC)c(C(=O)/C=C/c2ccccc2)c(OC)c1 | Active | 18 | 0.8 | >7.2 | 11.4 | >6.9 | Active | Active | 23 | Active | 21 | Active | 1.7 | Active | 6.9 | 0.1 | 1 | 20 | Active | >7.2 | IC50 (PC-3 [21]): 5.1 µM; Activity (MCF7 [22]): Active; Ratio IC50 [23]: >3.2; viability at 50 µM (Huh-7 [24]): 6%; Activity_index (PC-3 [25]): 18; Activity (Caco-2 [26]): 38%; Ratio IC50 [27]: >3.9; Activity (HaCaT [28]): 0.1%; Activity (NCI-H727 [29]): Active; Activity_index (Huh-7 [30]): 8.5; Activity_index (Caco-2 [31]): 38.7; Activity (Huh-7 [32]): 45%; Activity_index (HaCaT [33]): 18.3; Activity (HCT-116 [34]): Active; Ratio IC50 [35]: >4.4; Activity (Caco-2 [36]): 24%; viability at 50 µM (NCI-H727 [37]): 1%; Activity (MDA-MB-231 [38]): Active
COc1cccc(/C=C/C(=O)c2c(O)cc(OC)cc2OC)c1 | Active | 49 | 0.3 | 3 | 14.8 | 2.6 | Active | Active | 38 | Active | 4.2 | Active | 9.4 | Active | 7.7 | 0.1 | 0 | 7 | Active | 3.5 | IC50 (PC-3 [21]): 7.3 µM; Activity (MCF7 [22]): Active; Ratio IC50 [23]: 1.8; viability at 50 µM (Huh-7 [24]): 13%; Activity_index (PC-3 [25]): 4.4; Activity (Caco-2 [26]): 31%; Ratio IC50 [27]: 2; Activity (HaCaT [28]): 8%; Activity (NCI-H727 [29]): Active; Activity_index (Huh-7 [30]): 1.6; Activity_index (Caco-2 [31]): 14.4; Activity (Huh-7 [32]): 56%; Activity_index (HaCaT [33]): 2.6; Activity (HCT-116 [34]): Active; Ratio IC50 [35]: 1.8; Activity (Caco-2 [36]): 34%; viability at 50 µM (NCI-H727 [37]): 1%; Activity (MDA-MB-231 [38]): Active
